# From US12649751B2 (Arcus Biosciences, Inc., priority 2022, dated 2026)
# Target: HPK1 (Homo sapiens, UniProt Q92918)
# Experiment: HPK1 Biochemical Assay (ADP-Glo luminescence; low ATP 10 μM or high ATP 200 μM)
# Conditions: 2 nM HPK1, 10 μM ATP; read-out: Biochemical Potency (low ATP)
# Protocol: Dose-response assays were performed in Corning® Low Volume 384-well assay plates containing 100 nL of 22 serial 2-fold compound dilutions. Wells containing DMSO alone were used as negative control. A kinase mixture (5 μL) containing 2 nM HPK1 (or 5 nM for high ATP assay) in assay buffer (50 mM Hepes pH 7.4, 10 mM MgCl2, 0.01% Brij-15, 0.01% bovine serum albumin, and 1 mM dithiothreitol) was added to the assay plates and incubated at 25° C. for 1 hour. Wells without HPK1 were used as positive control. A […] of 10 μM ATP (or 200 μM for high ATP) and 0.2 μg/μL […] was then added to the wells, resulting in a 10 μL total reaction volume. Following incubation of the assay plates at 25° C. for 1 hour, 10 μL of ADP-Glo reagent was added to the wells and the plates were incubated at 25° C. for a further 40 minutes (or 1 hour for high ATP assay). Finally, 20 μL of Kinase Detection Reagent was added, and the plates were incubated for another 30 minutes at 25° C. An Envision plate reader was then used to detect the luminescence signals. IC50 values were determined by fitting the data to a standard 4-parameter logistic equation. The results are summarized in the Biochemical Potency columns of Tables 4 and 5 below (Biochemical Potency (high ATP); Biochemical Potency (low ATP)).
# HPK1, sequence (Q92918 whole entry, species assumed): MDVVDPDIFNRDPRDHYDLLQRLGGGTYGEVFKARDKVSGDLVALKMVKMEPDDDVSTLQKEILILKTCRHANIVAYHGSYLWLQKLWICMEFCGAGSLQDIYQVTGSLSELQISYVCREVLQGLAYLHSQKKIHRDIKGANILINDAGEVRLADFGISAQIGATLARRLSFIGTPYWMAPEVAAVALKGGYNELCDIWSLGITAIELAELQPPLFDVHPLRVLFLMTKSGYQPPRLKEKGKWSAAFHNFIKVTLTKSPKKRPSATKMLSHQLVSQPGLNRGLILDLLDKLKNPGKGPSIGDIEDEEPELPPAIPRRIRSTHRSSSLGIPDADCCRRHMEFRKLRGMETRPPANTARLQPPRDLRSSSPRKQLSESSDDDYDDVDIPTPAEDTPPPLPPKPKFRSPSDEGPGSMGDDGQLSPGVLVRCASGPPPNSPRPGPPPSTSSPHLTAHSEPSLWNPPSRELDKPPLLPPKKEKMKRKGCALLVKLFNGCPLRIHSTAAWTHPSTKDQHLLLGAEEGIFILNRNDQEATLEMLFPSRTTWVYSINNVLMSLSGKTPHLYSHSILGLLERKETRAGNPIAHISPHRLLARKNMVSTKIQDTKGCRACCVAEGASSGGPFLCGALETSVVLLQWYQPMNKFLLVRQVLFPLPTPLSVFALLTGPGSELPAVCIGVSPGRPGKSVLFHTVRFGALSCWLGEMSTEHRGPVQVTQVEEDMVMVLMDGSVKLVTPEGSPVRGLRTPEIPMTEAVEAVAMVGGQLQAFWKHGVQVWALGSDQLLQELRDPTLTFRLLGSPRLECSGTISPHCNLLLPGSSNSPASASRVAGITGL
row,Compound,IC50 [nM]
1,"Cc1cccnc1-c1nc2cc(Nc3cc(N4C[C@@H]5C[C@H]4CN5)ccn3)ncc2s1 [Example 86, 4-[(1S,4S)-2,5-Diazabicyclo[2.2.1]heptan-2-yl]-N-[2-(3-methylpyridin-2-yl)-[1,3]thiazolo[5,4-c]pyridin-6-yl]pyridin-2-amine]",> 5000
2,"Cc1cccnc1-c1nc2cc(Nc3cccc(N4CCN(C)C[C@@H]4C)n3)ncc2s1 [Example 95, 6-[(2S)-2,4-Dimethylpiperazin-1-yl]-N-[2-(3-methylpyridin-2-yl)-[1,3]thiazolo[5,4-c]pyridin-6-yl]pyridin-2-amine]",1000 to 5000
3,"Cc1cccnc1-c1nc2cc(Nc3cccc(N4C5CC4CN(C)C5)n3)ncc2s1 [Example 99, 6-{3-Methyl-3,6-diazabicyclo[3.1.1]heptan-6-yl}-N-[2-(3-methylpyridin-2-yl)-[1,3]thiazolo[5,4-c]pyridin-6-yl]pyridin-2-amine]",1000 to 5000
4,"Cc1cccnc1-c1nc2cc(Nc3cccc(N4C[C@H](C)N(C)[C@@H](C)C4)n3)ncc2s1 [Example 102, N-[2-(3-Methylpyridin-2-yl)-[1,3]thiazolo[5,4-c]pyridin-6-yl]-6-[(3S,5S)-3,4,5-trimethylpiperazin-1-yl]pyridin-2-amine]",100 to 1000
5,"Cc1cccnc1-c1nc2cc(Nc3cccc(N4CCN(C)C[C@H]4C)n3)ncc2s1 [Example 103, 6-[(2R)-2,4-Dimethylpiperazin-1-yl]-N-[2-(3-methylpyridin-2-yl)-[1,3]thiazolo[5,4-c]pyridin-6-yl]pyridin-2-amine]",100 to 1000
6,"CN1C[C@@H]2C[C@H]1CN2c1nccc(Nc2cc3nc(-c4ccnc(C(C)(C)O)c4)sc3cn2)n1 [Example 121, 2-{4-[6-({2-[(1S,4S)-5-Methyl-2,5-diazabicyclo[2.2.1]heptan-2-yl]pyrimidin-4-yl}amino)-[1,3]thiazolo[5,4-c]pyridin-2-yl]pyridin-2-yl}propan-2-ol]",< 100
7,"CN1C[C@@H]2C[C@H]1CN2c1nccc(Nc2cc3nc(-c4cccc(C(C)(C)O)c4)sc3cn2)n1 [Example 122, 2-{3-[6-({2-[(1S,4S)-5-Methyl-2,5-diazabicyclo[2.2.1]heptan-2-yl]pyrimidin-4-yl}amino)-[1,3]thiazolo[5,4-c]pyridin-2-yl]phenyl}propan-2-ol]",< 100
8,"CN1C[C@@H]2C[C@H]1CN2c1cncc(Nc2cc3nc(-c4cc(N5CC[C@H](F)C5)ccn4)sc3cn2)n1 [Example 124, N-(2-{4-[(3S)-3-Fluoropyrrolidin-1-yl]pyridin-2-yl}-[1,3]thiazolo[5,4-c]pyridin-6-yl)-6-[(1S,4S)-5-methyl-2,5-diazabicyclo[2.2.1]heptan-2-yl]pyrazin-2-amine]",< 100
9,"CN1C[C@@H]2C[C@H]1CN2c1cncc(Nc2cc3nc(-c4cc(N5CC[C@@H](F)C5)ccn4)sc3cn2)n1 [Example 125, N-(2-{4-[(3R)-3-Dluoropyrrolidin-1-yl]pyridin-2-yl}-[1,3]thiazolo[5,4-c]pyridin-6-yl)-6-[(1S,4S)-5-methyl-2,5-diazabicyclo[2.2.1]heptan-2-yl]pyrazin-2-amine]",< 100
10,"CN1C[C@@H]2C[C@H]1CN2c1nccc(Nc2cc3nc(-c4cccc(C(=O)N5CCCC5)c4)sc3cn2)n1 [Example 126, 2-[(1S,4S)-5-Methyl-2,5-diazabicyclo[2.2.1]heptan-2-yl]-N-{2-[3-(pyrrolidine-1-carbonyl)phenyl]-[1,3]thiazolo[5,4-c]pyridin-6-yl}pyrimidin-4-amine]",< 100
11,"CN(C)C(=O)c1cc(-c2nc3cc(Nc4ccnc(N5C[C@@H]6C[C@H]5CN6C)n4)ncc3s2)ccn1 [Example 127, N,N-Dimethyl-4-[6-({2-[(1S,4S)-5-methyl-2,5-diazabicyclo[2.2.1]heptan-2-yl]pyrimidin-4-yl}amino)-[1,3]thiazolo[5,4-c]pyridin-2-yl]pyridine-2-carboxamide]",< 100
12,"Cc1ncccc1-c1nc2cc(Nc3cccc(N4C[C@@H]5C[C@H]4CN5C)n3)ncc2s1 [Example 138, 6-[(1S,4S)-5-Methyl-2,5-diazabicyclo[2.2.1]heptan-2-yl]-N-[2-(2-methylpyridin-3-yl)-[1,3]thiazolo[5,4-c]pyridin-6-yl]pyridin-2-amine]",< 100

# The remaining lines, values ahead:
row,IC50 [nM],Compound
1,< 100,"Cc1cccnc1-c1nc2cc(Nc3ccc(C)c(N4C[C@@H](N)C[C@@H]4CO)n3)ncc2s1 [Example 68, [(4S)-4-Amino-1-(3-methyl-6-{[2-(3-methylpyridin-2-yl)-[1,3]thiazolo[5,4-c]pyridin-6-yl]amino}pyridin-2-yl)pyrrolidin-2-yl]methanol]"
2,< 100,"Cc1cccnc1-c1nc2cc(Nc3ccc(C)c(N4CCC[C@H]4CN)n3)ncc2s1 [Example 72, 6-[(2S)-2-(Aminomethyl)pyrrolidin-1-yl]-5-methyl-N-[2-(3-methylpyridin-2-yl)-[1,3]thiazolo[5,4-c]pyridin-6-yl]pyridin-2-amine]"
3,< 100,"Cc1cc(Nc2cc3nc(-c4ccnc(C)c4)sc3cn2)nc(N2CCC(C)(N)C2)c1 (stereo not drawn) [Example 73, 6-(3-Amino-3-methylpyrrolidin-1-yl)-4-methyl-N-[2-(2-methylpyridin-4-yl)-[1,3]thiazolo[5,4-c]pyridin-6-yl]pyridin-2-amine]"
4,< 100,"Cc1cccnc1-c1nc2cc(Nc3ccc(C)c(N4CC[C@H](N)C4)n3)ncc2s1 [Example 75, 6-[(3S)-3-Aminopyrrolidin-1-yl]-5-methyl-N-[2-(3-methylpyridin-2-yl)-[1,3]thiazolo[5,4-c]pyridin-6-yl]pyridin-2-amine]"
5,< 100,"Cc1cccnc1-c1nc2cc(Nc3ccc(C)c(N4C[C@H](O)C[C@H]4CO)n3)ncc2s1 [Example 77, (3R,5S)-5-(Hydroxymethyl)-1-(3-methyl-6-{[2-(3-methylpyridin-2-yl)-[1,3]thiazolo[5,4-c]pyridin-6-yl]amino}pyridin-2-yl)pyrrolidin-3-ol]"
6,< 100,"Cc1cccnc1-c1nc2cc(Nc3cccc(N4C[C@H]5C[C@@H]4CN5C)n3)ncc2s1 [Example 91, 6-[(1R,4R)-5-Methyl-2,5-diazabicyclo[2.2.1]heptan-2-yl]-N-[2-(3-methylpyridin-2-yl)-[1,3]thiazolo[5,4-c]pyridin-6-yl]pyridin-2-amine]"
7,< 100,"Cc1cccnc1-c1nc2cc(Nc3cccc(N4CCN(C)[C@@H](C)C4)n3)ncc2s1 [Example 94, 6-[(3S)-3,4-Dimethylpiperazin-1-yl]-N-[2-(3-methylpyridin-2-yl)-[1,3]thiazolo[5,4-c]pyridin-6-yl]pyridin-2-amine]"
8,< 100,"Cc1cccnc1-c1nc2cc(Nc3cccc(N4CC5CC(C4)N5C)n3)ncc2s1 [Example 98, 6-{6-Methyl-3,6-diazabicyclo[3.1.1]heptan-3-yl}-N-[2-(3-methylpyridin-2-yl)-[1,3]thiazolo[5,4-c]pyridin-6-yl]pyridin-2-amine]"
9,< 100,"Cc1cccnc1-c1nc2cc(Nc3cccc(N4CCN(C)[C@H](C)C4)n3)ncc2s1 [Example 104, 6-[(3R)-3,4-Dimethylpiperazin-1-yl]-N-[2-(3-methylpyridin-2-yl)-[1,3]thiazolo[5,4-c]pyridin-6-yl]pyridin-2-amine]"
10,< 100,"Cc1cccnc1-c1nc2cc(Nc3ccc(C)c(N4C[C@H]5CC[C@@H](C4)[C@H]5O)n3)ncc2s1 [Example 106, (1R,5S,8S)-3-(3-Methyl-6-{[2-(3-methylpyridin-2-yl)-[1,3]thiazolo[5,4-c]pyridin-6-yl]amino}pyridin-2-yl)-3-azabicyclo[3.2.1]octan-8-ol]"
11,< 100,"Cc1cccnc1-c1nc2cc(Nc3cccc(N4CC5CCC(C4)N5C)n3)ncc2s1 [Example 107, 6-{8-Methyl-3,8-diazabicyclo[3.2.1]octan-3-yl}-N-[2-(3-methylpyridin-2-yl)-[1,3]thiazolo[5,4-c]pyridin-6-yl]pyridin-2-amine]"
12,< 100,"Cc1cccnc1-c1nc2cc(Nc3cccc(N4C[C@@H]5CCN(C)[C@@H]5C4)n3)ncc2s1 [Example 111, 6-[(3aS,6aS)-1-Methyl-octahydropyrrolo[3,4-b]pyrrol-5-yl]-N-[2-(3-methylpyridin-2-yl)-[1,3]thiazolo[5,4-c]pyridin-6-yl]pyridin-2-amine]"
13,< 100,"Cc1cccnc1-c1nc2cc(Nc3cccc(N4CCN5CCC[C@H]5C4)n3)ncc2s1 [Example 113, 6-[(8aS)—Octahydropyrrolo[1,2-a]pyrazin-2-yl]-N-[2-(3-methylpyridin-2-yl)-[1,3]thiazolo[5,4-c]pyridin-6-yl]pyridin-2-amine]"
14,< 100,"Cc1cccnc1-c1nc2cc(Nc3cccc(N4C[C@@H]5C[C@H]4CN5C4CCOCC4)n3)ncc2s1 [Example 117, N-[2-(3-Methylpyridin-2-yl)-[1,3]thiazolo[5,4-c]pyridin-6-yl]-6-[(1S,4S)-5-(oxan-4-yl)-2,5-diazabicyclo[2.2.1]heptan-2-yl]pyridin-2-amine]"
15,< 100,"COc1ccc(N2C[C@@H]3C[C@H]2CN3C)nc1Nc1cc2nc(-c3ncccc3C)sc2cn1 [Example 118, 3-Methoxy-6-[(1S,4S)-5-methyl-2,5-diazabicyclo[2.2.1]heptan-2 yl]-N-[2-(3-methylpyridin-2-yl)-[1,3]thiazolo[5,4-c]pyridin-6-yl]pyridin-2-amine]"
